Among the data in ChEMBL document CHEMBL3045560, “Insecticide interactions with -aminobutyric acid and nicotinic receptors: predictive aspects of structural models” (J Pestic Sci, 2008) are Ratio IC50, LD50 and IC50 values, retold here.

pIC50: −log10 of the molar value.

Series [1] can be described thus: Selectivity ratio of IC50 for recombinant human GABA receptor to IC50 for housefly GABA receptor.
Another series relates to Musca domestica. Kind of series: Insecticidal activity against topically-treated Musca domestica (house fly). The format is ADME, organism-based. The settings on record: topical.
The nature of series [2]: Toxicity in ip dosed Mus musculus (mouse). The settings on record: in vivo. The format is organism-based.
Series [3] in a line: Inhibition of recombinant Homo sapiens (human) GABA receptor.
Series [4] deals with Gamma-aminobutyric acid receptor subunit rho-1 (Homo sapiens, UniProt P24046). Kind of series: Displacement of [3H]EBOB from recombinant Homo sapiens (human) GABA rho1 receptor.
Gamma-aminobutyric acid receptor subunit rho-1, sequence (P24046 whole entry): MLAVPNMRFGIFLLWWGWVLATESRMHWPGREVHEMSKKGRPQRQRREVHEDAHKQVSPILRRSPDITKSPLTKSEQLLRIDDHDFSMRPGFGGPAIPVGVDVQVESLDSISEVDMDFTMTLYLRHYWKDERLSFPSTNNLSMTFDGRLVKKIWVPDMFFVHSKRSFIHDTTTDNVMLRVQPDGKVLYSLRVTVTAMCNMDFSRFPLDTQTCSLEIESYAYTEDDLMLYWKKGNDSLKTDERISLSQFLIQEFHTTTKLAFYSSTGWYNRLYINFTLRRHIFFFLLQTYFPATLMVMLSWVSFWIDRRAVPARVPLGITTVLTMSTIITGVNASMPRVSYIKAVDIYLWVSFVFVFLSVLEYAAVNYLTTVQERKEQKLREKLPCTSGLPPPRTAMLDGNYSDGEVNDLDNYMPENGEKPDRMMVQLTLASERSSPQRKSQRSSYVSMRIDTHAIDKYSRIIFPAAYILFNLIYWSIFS
The target of series [5] is T1, Gamma-aminobutyric acid receptor subunit alpha-1/ beta-1 (Homo sapiens, UniProt P14867+P18505).
T1 sequence (P14867 whole entry): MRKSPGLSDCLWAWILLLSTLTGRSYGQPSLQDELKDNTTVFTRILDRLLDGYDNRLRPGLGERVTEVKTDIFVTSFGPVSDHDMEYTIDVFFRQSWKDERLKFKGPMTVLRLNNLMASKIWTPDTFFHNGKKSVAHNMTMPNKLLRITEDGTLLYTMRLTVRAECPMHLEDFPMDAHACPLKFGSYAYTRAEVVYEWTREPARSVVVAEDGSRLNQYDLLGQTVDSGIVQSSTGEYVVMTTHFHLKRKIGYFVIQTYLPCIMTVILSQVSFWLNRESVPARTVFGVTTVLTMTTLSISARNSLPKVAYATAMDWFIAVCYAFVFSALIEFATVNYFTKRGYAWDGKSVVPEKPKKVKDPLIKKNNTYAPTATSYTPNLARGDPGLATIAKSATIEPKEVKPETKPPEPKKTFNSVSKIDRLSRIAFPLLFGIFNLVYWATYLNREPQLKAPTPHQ
T1 sequence (P18505 whole entry): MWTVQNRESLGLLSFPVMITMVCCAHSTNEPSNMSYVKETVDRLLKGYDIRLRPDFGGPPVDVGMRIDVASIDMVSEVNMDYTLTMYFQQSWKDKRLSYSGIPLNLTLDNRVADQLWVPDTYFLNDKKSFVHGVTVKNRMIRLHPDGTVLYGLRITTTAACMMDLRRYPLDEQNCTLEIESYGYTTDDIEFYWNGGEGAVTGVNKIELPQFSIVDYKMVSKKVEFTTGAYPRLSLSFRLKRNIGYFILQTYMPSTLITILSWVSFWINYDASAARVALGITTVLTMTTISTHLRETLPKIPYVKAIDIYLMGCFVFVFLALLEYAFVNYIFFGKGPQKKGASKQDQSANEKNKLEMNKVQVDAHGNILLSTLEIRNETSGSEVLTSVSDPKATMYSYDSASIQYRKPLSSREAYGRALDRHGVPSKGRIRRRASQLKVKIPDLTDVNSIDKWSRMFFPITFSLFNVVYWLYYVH
The experiment in a line: Displacement of [3H]EBOB from recombinant Homo sapiens (human) GABA alpha1beta1 receptor. The format is protein-complex assay. Background: Loss of bound radioactivity is the signal in a displacement assay; it reports binding, not function.

The target of series [6] is T2, GABA A receptor alpha-1/beta-1/gamma-2 (Homo sapiens, UniProt P14867+P18505+P18507).
T2 sequence (P14867 whole entry): T1 sequence (P14867 whole entry)
T2 sequence (P18507 whole entry): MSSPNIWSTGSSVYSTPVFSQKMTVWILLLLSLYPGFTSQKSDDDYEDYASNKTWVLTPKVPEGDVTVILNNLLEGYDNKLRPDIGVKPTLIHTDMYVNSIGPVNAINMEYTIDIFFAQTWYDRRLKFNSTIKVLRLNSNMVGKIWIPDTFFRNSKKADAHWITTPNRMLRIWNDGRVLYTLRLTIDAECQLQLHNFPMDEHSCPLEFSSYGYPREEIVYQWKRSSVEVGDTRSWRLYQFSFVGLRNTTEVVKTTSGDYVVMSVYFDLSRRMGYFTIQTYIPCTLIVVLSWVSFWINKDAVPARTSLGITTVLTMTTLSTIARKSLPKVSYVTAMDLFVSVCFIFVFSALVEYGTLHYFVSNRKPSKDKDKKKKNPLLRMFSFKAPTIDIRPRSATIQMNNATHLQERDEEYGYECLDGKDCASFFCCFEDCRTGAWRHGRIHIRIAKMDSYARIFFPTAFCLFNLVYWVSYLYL
T2 sequence (P18505 whole entry): T1 sequence (P18505 whole entry)
The experiment in a line: Displacement of [3H]EBOB from recombinant Homo sapiens (human) GABA alpha1beta1gamma2 receptor. The format is protein-complex assay.

Series [7] has as its target T3, GABA-A receptor; alpha-1/beta-3/gamma-2 (Homo sapiens, UniProt P14867+P18507+P28472).
T3 sequence (P14867 whole entry): T1 sequence (P14867 whole entry)
T3 sequence (P18507 whole entry): T2 sequence (P18507 whole entry)
T3 sequence (P28472 whole entry): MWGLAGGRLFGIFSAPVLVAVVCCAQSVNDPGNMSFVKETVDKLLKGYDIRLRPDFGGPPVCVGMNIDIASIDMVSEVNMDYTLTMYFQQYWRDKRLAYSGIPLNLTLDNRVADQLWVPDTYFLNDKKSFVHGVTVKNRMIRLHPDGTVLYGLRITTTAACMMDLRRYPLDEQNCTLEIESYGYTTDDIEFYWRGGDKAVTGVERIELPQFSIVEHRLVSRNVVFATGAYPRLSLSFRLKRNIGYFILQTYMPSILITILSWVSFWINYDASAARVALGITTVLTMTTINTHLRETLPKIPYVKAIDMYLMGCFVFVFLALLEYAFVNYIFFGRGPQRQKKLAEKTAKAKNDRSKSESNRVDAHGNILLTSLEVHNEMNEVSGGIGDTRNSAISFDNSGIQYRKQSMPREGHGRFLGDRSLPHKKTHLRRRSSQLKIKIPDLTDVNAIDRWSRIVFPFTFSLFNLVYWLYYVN
Kind of series: Displacement of [3H]EBOB from recombinant Homo sapiens (human) GABA alpha1beta3gamma2 receptor. It counts as protein-complex assay.

Series [8] addresses T4, GABA-A receptor alpha-1/beta-3 (Homo sapiens, UniProt P14867+P28472).
T4 sequence (P14867 whole entry): T1 sequence (P14867 whole entry)
T4 sequence (P28472 whole entry): T3 sequence (P28472 whole entry)
The experiment in a line: Displacement of [3H]EBOB from recombinant Homo sapiens (human) GABA alpha1beta3 receptor.

Series [9] concerns the target GABA-A receptor; alpha-6/beta-3/gamma-2 (Homo sapiens, UniProt P18507+P28472+Q16445). Kind of series: Displacement of [3H]EBOB from recombinant Homo sapiens (human) GABA alpha6beta3gamma2 receptor. The format is protein-complex assay.
The target in series [10] is Gamma-aminobutyric acid receptor subunit alpha-6/beta-3 (Homo sapiens, UniProt P28472+Q16445). Kind of series: Displacement of [3H]EBOB from recombinant Homo sapiens (human) GABA alpha6beta3 receptor. The format is protein-complex assay.
Gamma-aminobutyric acid receptor subunit alpha-6/beta-3, sequence (Q16445 whole entry, one chain of several): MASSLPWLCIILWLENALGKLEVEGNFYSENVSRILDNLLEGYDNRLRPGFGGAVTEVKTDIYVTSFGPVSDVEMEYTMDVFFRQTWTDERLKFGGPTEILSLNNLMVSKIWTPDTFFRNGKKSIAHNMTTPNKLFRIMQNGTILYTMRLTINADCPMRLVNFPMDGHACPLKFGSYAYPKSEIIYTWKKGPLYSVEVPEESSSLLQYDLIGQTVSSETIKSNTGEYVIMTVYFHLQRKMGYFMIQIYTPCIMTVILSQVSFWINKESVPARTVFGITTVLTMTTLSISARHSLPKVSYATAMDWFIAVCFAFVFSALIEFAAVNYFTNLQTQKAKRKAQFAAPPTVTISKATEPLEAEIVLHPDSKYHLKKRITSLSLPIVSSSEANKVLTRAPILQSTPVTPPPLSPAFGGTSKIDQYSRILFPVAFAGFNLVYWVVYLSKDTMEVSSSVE
In series [11] the target is T5, Gamma-aminobutyric acid receptor subunit beta-3 (Homo sapiens, UniProt P28472).
T5 sequence (P28472 whole entry): T3 sequence (P28472 whole entry)
Kind of series: Displacement of [3H]EBOB from recombinant Homo sapiens (human) GABA beta3 receptor.

The next series concerns the target T6, GABA receptor subunit (Musca domestica, UniProt Q75NA5).
T6 sequence (Q75NA5 whole entry): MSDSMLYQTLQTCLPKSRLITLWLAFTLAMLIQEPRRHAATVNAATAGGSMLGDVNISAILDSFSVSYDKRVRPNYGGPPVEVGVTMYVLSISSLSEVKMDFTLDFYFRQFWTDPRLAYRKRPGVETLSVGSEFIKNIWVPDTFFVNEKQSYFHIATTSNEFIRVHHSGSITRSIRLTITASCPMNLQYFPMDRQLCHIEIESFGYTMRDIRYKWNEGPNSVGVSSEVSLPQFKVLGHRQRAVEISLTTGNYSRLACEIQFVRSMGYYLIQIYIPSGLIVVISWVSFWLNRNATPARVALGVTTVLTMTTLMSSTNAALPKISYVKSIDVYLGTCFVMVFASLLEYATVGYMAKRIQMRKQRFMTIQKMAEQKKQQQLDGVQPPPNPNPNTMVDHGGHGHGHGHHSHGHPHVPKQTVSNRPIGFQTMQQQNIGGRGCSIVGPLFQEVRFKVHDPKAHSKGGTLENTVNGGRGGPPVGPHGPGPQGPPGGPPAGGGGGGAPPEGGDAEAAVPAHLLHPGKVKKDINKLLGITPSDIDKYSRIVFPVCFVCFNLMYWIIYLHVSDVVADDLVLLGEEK
The experiment in a line: Inhibition of Musca domestica (house fly) GABA receptor.

GABA-A receptor; alpha-6/beta-3/gamma-2, sequence (Q16445 whole entry, one chain of several): as the sequence (Q16445 whole entry, one chain of several) above

Usually LD50 stands for the dose expected to kill half of the subjects tested. Broadly, the pIC50 is the negative decadic logarithm of the IC50, by convention in mol/L. Take `O=S1OC[C@@H]2[C@H](CO1)[C@@]1(Cl)C(Cl)=C(Cl)[C@]2(Cl)C1(Cl)Cl` (stereo partly drawn) [ALPHA-ENDOSULFAN]: the Ratio IC50 in series [1] was 0.73. Moreover, the LD50 in the series on Musca domestica worked out at 5.5 mg/kg; in series [2] it was 10 mg/kg. The pIC50 is 8.14 in series [3]; 6.10 in [4]; 6.93 in series [5]; 7.40 in series [6]; 7.80 in [7]; 8.08 in series [8]. In addition, the pIC50 was 8.34 in series [9], 8.40 in [10], 9.33 in series [11] and 8.00 on GABA receptor subunit.

Consider `Cl[C@H]1[C@H](Cl)[C@@H](Cl)[C@@H](Cl)[C@H](Cl)[C@H]1Cl` [LINDANE], for which, in series [1], the Ratio IC50 came to 28. For the same molecule, the LD50 in the series on Musca domestica was 5.5 mg/kg; in series [2] it was 40 mg/kg. The pIC50 is 6.51 in series [3]; 7.04 in series [4]; 6.95 in series [5]; 7.17 in series [6]; 7.68 in series [7]; 7.92 in series [8]. Further, the negative-log IC50 (pIC50) is 8.31 in series [9], 8.89 in series [10], 9.05 in series [11] and 7.96 at GABA receptor subunit.

As for `C#Cc1ccc(C23OCC(CCC)(CO2)CO3)cc1`, the Ratio IC50 in series [1] came out at 5.

As for `N#Cc1nn(-c2c(Cl)cc(C(F)(F)F)cc2Cl)c(N)c1[S+]([O-])C(F)(F)F` (stereo not given) [FIPRONIL], the Ratio IC50 in series [1] amounted to 1090. The figures for the LD50 (with Musca domestica; in [2]) were 0.25 mg/kg and 32 mg/kg, respectively. Besides, the pIC50 in series [3] is 5.60; in series [4] it was below 5.00; in series [5] it was 5.11; in series [6], 5.55; in series [7] it was 7.48; in series [8] it was 7.55. In addition, the pIC50 in series [9] was 7.77; in series [10] it was 8.51; in series [11], 8.62; against GABA receptor subunit it was 8.64.
